Reference: patent US20190031676A1, “ANTIBACTERIAL ANNULATED PYRROLIDIN-2-ONE DERIVATIVES” (priority 2015, published 2019)
In brackets after ≈: the same amount, converted by molar mass.

How the values were obtained:
Assay in all cases: Bacterial growth minimal inhibitory concentration (microdilution, cation-adjusted Mueller-Hinton Broth)
Assay type in all cases: cell-based
P. aeruginosa ATCC27853 = conditions: quinolone-sensitive strain; for MIC: Pseudomonas aeruginosa, ATCC27853
Experimental: (§1) Minimal Inhibitory Concentrations (MICs; mg/L) were determined in cation-adjusted Mueller-Hinton Broth by a microdilution method following the description given in “Methods for Dilution Antimicrobial Susceptibility Tests for Bacteria that grow Aerobically”, Approved standard, 7th ed., Clinical and Laboratory Standards Institute (CLSI) Document M7-A7, Wayne, Pa., USA (2006).
(§2) All Example compounds were tested against several Gram-positive and Gram-negative bacteria. […] K. pneumoniae A-651 is a multiply-resistant strain (in particular quinolone-resistant), while E. coli ATCC25922 and P. aeruginosa ATCC27853 are quinolone-sensitive strains.

E. coli ATCC25922 = conditions: quinolone-sensitive strain; for MIC: Escherichia coli, ATCC25922
Experimental: as §1, §2

K. pneumoniae A-651 = conditions: multiply-resistant strain (in particular quinolone-resistant); for MIC: Klebsiella pneumoniae, A651
Experimental: as §1, §2

Structure (SMILES) | MIC (P. aeruginosa ATCC27853) [µg/mL] | MIC (E. coli ATCC25922) [µg/mL] | MIC (K. pneumoniae A-651) [µg/mL] | MIC for P. aeruginosa ATCC27853 (P. aeruginosa ATCC27853) [µg/mL] | MIC for E. coli ATCC25922 (E. coli ATCC25922) [µg/mL] | MIC for K. Pneumoniae A-651 (K. pneumoniae A-651) [µg/mL]
C[C@@](CCN1Cc2cc(C#CC#CC3CN(CCF)C3)sc2C1=O)(C(=O)NO)S(C)(=O)=O [Example 23, (2R)-4-(2-((1-(2-fluoroethyl)azetidin-3-yl)buta-1,3-diyn-1-yl)-6-oxo-4,6-dihydro-5H-thieno[2,3-c]pyrrol-5-yl)-N-hydroxy-2-methyl-2-(methylsulfonyl)butanamide] | 1 (≈ 2.08 µM) | 0.063 (≈ 0.131 µM) | 0.25 (≈ 0.519 µM) |  |  | 
CC(C)N1CC(C#CC#Cc2cc3c(s2)C(=O)N(CC[C@](C)(C(=O)NO)S(C)(=O)=O)C3)C1 [Example 24, (R)—N-hydroxy-4-(2-((1-isopropylazetidin-3-yl)buta-1,3-diyn-1-yl)-6-oxo-4,6-dihydro-5H-thieno[2,3-c]pyrrol-5-yl)-2-methyl-2-(methylsulfonyl)butanamide] | 1 (≈ 2.09 µM) | 0.25 (≈ 0.523 µM) | 0.5 (≈ 1.05 µM) |  |  | 
CC(C)(O)CN1CC(C#CC#Cc2cc3c(s2)C(=O)N(CC[C@](C)(C(=O)NO)S(C)(=O)=O)C3)C1 [Example 25, (2R)—N-hydroxy-4-(2-((1-(2-hydroxy-2-methylpropyl)azetidin-3-yl)buta-1,3-diyn-1-yl)-6-oxo-4,6-dihydro-5H-thieno[2,3-c]pyrrol-5-yl)-2-methyl-2-(methylsulfonyl)butanamide] | 1 (≈ 1.97 µM) | 1 (≈ 1.97 µM) | 1 (≈ 1.97 µM) |  |  | 
C[C@@](CCN1Cc2cc(C#Cc3ccc(C4CN(C5COC5)C4)cc3)sc2C1=O)(C(=O)NO)S(C)(=O)=O [Example 26, (2R)—N-hydroxy-2-methyl-2-(methylsulfonyl)-4-(2-((4-(1-(oxetan-3-yl)azetidin-3-yl)phenyl)ethynyl)-6-oxo-4,6-dihydro-H-thieno[2,3-c]pyrrol-5-yl)butanamide] |  |  |  | 2 | 0.25 | 0.25
C[C@@](CCN1Cc2cc(C#CC#CC3CN(C4CCOCC4)C3)sc2C1=O)(C(=O)NO)S(C)(=O)=O [Example 27, (2R)—N-hydroxy-2-methyl-2-(methylsulfonyl)-4-(6-oxo-2-((1-(tetrahydro-2H-pyran-4-yl)azetidin-3-yl)buta-1,3-diyn-1-yl)-4,6-dihydro-5H-thieno[2,3-c]pyrrol-5-yl)butanamide] | 1 (≈ 1.92 µM) | 0.125 (≈ 0.241 µM) | 0.25 (≈ 0.481 µM) |  |  | 
C[C@@](CCN1Cc2cc(C#CC#CC3CN(CC4COC4)C3)sc2C1=O)(C(=O)NO)S(C)(=O)=O [Example 28, (2R)—N-hydroxy-2-methyl-2-(methylsulfonyl)-4-(2-((1-(oxetan-3-ylmethyl)azetidin-3-yl)buta-1,3-diyn-1-yl)-6-oxo-4,6-dihydro-5H-thieno[2,3-c]pyrrol-5-yl)butanamide] | 2 (≈ 3.96 µM) | 0.25 (≈ 0.494 µM) | 0.5 (≈ 0.989 µM) |  |  | 
C[C@@](CCN1Cc2cc(C#Cc3ccc(C4CN(C5COC5)C4)cc3)sc2C1=O)(C(=O)NO)S(C)(=O)=O [Example 29, (2R)—N-hydroxy-2-methyl-2-(methylsulfonyl)-4-(2-((4-(1-(oxetan-3-yl)azetidin-3-yl)phenyl)ethynyl)-6-oxo-4,6-dihydro-H-thieno[2,3-c]pyrrol-5-yl)butanamide] |  |  |  | 2 | 0.25 | 1
C[C@@](CCN1Cc2cc(C#CC#C[C@H]3C[C@@H]3CN3CC(F)C3)sc2C1=O)(C(=O)NO)S(C)(=O)=O [Example 30, (2R)-4-(2-(((1S,2S)-2-((3-fluoroazetidin-1-yl)methyl)cyclopropyl)buta-1,3-diyn-1-yl)-6-oxo-4,6-dihydro-5H-thieno[2,3-c]pyrrol-5-yl)-N-hydroxy-2-methyl-2-(methylsulfonyl)butanamide] | 2 (≈ 3.94 µM) | 0.125 (≈ 0.246 µM) | 1 (≈ 1.97 µM) |  |  | 
C[C@@](CCN1Cc2cc(C#CC#CC3CN([C@H]4C[C@@H](O)C4)C3)sc2C1=O)(C(=O)NO)S(C)(=O)=O [Example 31, (2R)—N-hydroxy-4-(2-((1-((1s,3s)-3-hydroxycyclobutyl)azetidin-3-yl)buta-1,3-diyn-1-yl)-6-oxo-4,6-dihydro-5H-thieno[2,3-c]pyrrol-5-yl)-2-methyl-2-(methylsulfonyl)butanamide] |  |  |  | 1 | 0.5 | 0.5
C[C@@](CCN1Cc2cc(C#CC#CC3CN(C4CC(O)C4)C3)sc2C1=O)(C(=O)NO)S(C)(=O)=O (stereo partly drawn) [Example 32, (2R)—N-hydroxy-4-(2-((1-((1r,3r)-3-hydroxycyclobutyl)azetidin-3-yl)buta-1,3-diyn-1-yl)-6-oxo-4,6-dihydro-5H-thieno[2,3-c]pyrrol-5-yl)-2-methyl-2-(methylsulfonyl)butanamide] |  |  |  | 1 | 0.25 | 0.5
C[C@@](CCN1Cc2cc(C#Cc3ccc(CCO)cc3)ccc2C1=O)(C(=O)NO)S(C)(=O)=O [Example 33, (2R)—N-hydroxy-4-(5-((4-(2-hydroxyethyl)phenyl)ethynyl)-1-oxoisoindolin-2-yl)-2-methyl-2-(methylsulfonyl)butanamide] | 2 (≈ 4.25 µM) | 0.125 (≈ 0.266 µM) | 0.5 (≈ 1.06 µM) |  |  | 
C[C@@](CCN1Cc2cc(C#CC#CC3CN(C(=O)OCCCO)C3)sc2C1=O)(C(=O)NO)S(C)(=O)=O [Example 34, 3-hydroxypropyl (2R)-3-((5-(4-(hydroxyamino)-3-methyl-3-(methylsulfonyl)-4-oxobutyl)-6-oxo-5,6-dihydro-4H-thieno[2,3-c]pyrrol-2-yl)buta-1,3-diyn-1-yl)azetidine-1-carboxylate] |  |  |  | 1 | 0.25 | 0.5
CN1C[C@@H](C#CC#Cc2cc3c(s2)C(=O)N(CC[C@](C)(C(=O)NO)S(C)(=O)=O)C3)[C@@H]1CO [Example 35, (2R)—N-hydroxy-4-(2-(((2R,3R)-2-(hydroxymethyl)-1-methylazetidin-3-yl)buta-1,3-diyn-1-yl)-6-oxo-4,6-dihydro-5H-thieno[2,3-c]pyrrol-5-yl)-2-methyl-2-(methylsulfonyl)butanamide] | 1 (≈ 2.09 µM) | 0.5 (≈ 1.04 µM) | 2 (≈ 4.17 µM) |  |  | 
CN1C[C@@H](C#CC#Cc2cc3c(s2)C(=O)N(CC[C@](C)(C(=O)NO)S(C)(=O)=O)C3)C[C@@H]1CO [Example 36, (2R)—N-hydroxy-4-(2-(((3R,5R)-5-(hydroxymethyl)-1-methylpyrrolidin-3-yl)buta-1,3-diyn-1-yl)-6-oxo-4,6-dihydro-5H-thieno[2,3-c]pyrrol-5-yl)-2-methyl-2-(methylsulfonyl)butanamide] | 1 (≈ 2.03 µM) | 0.5 (≈ 1.01 µM) | 1 (≈ 2.03 µM) |  |  | 
C[C@@](CCN1Cc2cc(C#CC#CC3CN(CC4(O)COC4)C3)sc2C1=O)(C(=O)NO)S(C)(=O)=O [Example 39, (2R)—N-hydroxy-4-(2-((1-((3-hydroxyoxetan-3-yl)methyl)azetidin-3-yl)buta-1,3-diyn-1-yl)-6-oxo-4,6-dihydro-5H-thieno[2,3-c]pyrrol-5-yl)-2-methyl-2-(methylsulfonyl)butanamide] | 2 (≈ 3.83 µM) | 1 (≈ 1.92 µM) | 2 (≈ 3.83 µM) |  |  | 
CN1[C@@H](CO)C[C@@H]1C#CC#Cc1cc2c(s1)C(=O)N(CC[C@](C)(C(=O)NO)S(C)(=O)=O)C2 [Example 40, (2R)—N-hydroxy-4-(2-(((2R,4R)-4-(hydroxymethyl)-1-methylazetidin-2-yl)buta-1,3-diyn-1-yl)-6-oxo-4,6-dihydro-5H-thieno[2,3-c]pyrrol-5-yl)-2-methyl-2-(methylsulfonyl)butanamide] | 1 (≈ 2.09 µM) | 0.25 (≈ 0.521 µM) | 2 (≈ 4.17 µM) |  |  | 
